Where two headings read alike, the source gives them in different places.
Tests used:
SARS-CoV-2 variants [1] = details: cited from earlier work
SARS-CoV-2 variants [2] = test: microbe, parasite or virus in culture
[3] = Severe acute respiratory syndrome coronavirus 2, read-out: highest EC50 reported in the literature, corrected for plasma protein binding
[4] = Severe acute respiratory syndrome coronavirus 2, read-out: highest EC90 reported in the literature, corrected for plasma protein binding
[5] = Severe acute respiratory syndrome coronavirus 2, read-out: lowest EC50 reported in the literature, corrected for plasma protein binding
[6] = Severe acute respiratory syndrome coronavirus 2, read-out: lowest EC90 reported in the literature, corrected for plasma protein binding

Row | Compound | EC50 (SARS-CoV-2 variants [1]) [µM] | EC90 (SARS-CoV-2 variants [1]) [µM] | EC50 (SARS-CoV-2 variants [2]; [3]) [µM] | EC90 (SARS-CoV-2 variants [2]; [4]) [µM] | EC50 (SARS-CoV-2 variants [2]; [5]) [µM] | EC90 (SARS-CoV-2 variants [2]; [6]) [µM]
1 | CCC(CC)COC(=O)[C@H](C)N[P@](=O)(OC[C@H]1O[C@@](C#N)(c2ccc3c(N)ncnn23)[C@H](O)[C@@H]1O)Oc1ccccc1 [Remdesivir, reference compound] | 0.001 to 1.7 | 0.022 to 3.1 | 14.2 | 25.8 | 0.008 | 0.18
2 | N#C[C@@]1(c2ccc3c(N)ncnn23)O[C@H](CO)[C@@H](O)[C@H]1O [GS-441524] | 0.08 to 5.6 | 0.71 to 3.9 | 5.71 | 3.98 | 0.08 | 0.72

From publication PMC12064607 (Clinical Pharmacokinetics, 2025)
